Laboratory results as given in patent publication US11185488B2, “Skin external preparation composition for moisturizing skin containing 1,2,3,4,6-penta-O-galloyl-β-D-glucose” (AMOREPACIFIC CORPORATION, priority 2017, dated 2021).

Legend:
Format in all cases: cell-based
filaggrin = assay: Gene expression level of filaggrin (RNA separation and RT-PCR); settings: neonatal keratinocytes, 1 ppm, 2 days; for Increase in filaggrin expression(%): corrected to RPL13A
Protocol: Neonatal keratinocytes (obtained from Lonza) was dispensed into a 60 mm cell culture dish at a density of 1.25×10^6 cells/dish using KGM medium, and then cultured at 37° C. in a 5% CO2 incubator up to about 80% confluency. Then, eight compounds including PGG from soybean, green tea, ginseng, and other natural products were selected as test substances (Table 1), and the cells were treated with each of these compounds at 1 ppm and cultured for 2 days. After the culture, the medium was removed, and 1 ml of Trizol (Invitrogen) was added, and mRNA was isolated according to an RNA isolation method of Invitrogen. mRNA was quantified at 260 nm using an ultraviolet detector (Hewlett Packard), and RT-PCR (Reverse Transcription-Polymerase Chain Reaction) was performed. For genetic analysis of each sample, correction was performed based on the complementary gene, RPL13A, and the expression level of filaggrin for each sample is shown in Table 1 below.

Neonatal keratinocytes = assay: Evaluation of cytotoxicity of PGG (cell viability); settings: PGG 0, 1, 2, 4 ppm, cultured 4 days, FIG. 1
Protocol: Neonatal keratinocytes (obtained from Lonza) was dispensed into a 60 mm cell culture dish at a density of 1.25×10^6 cells/dish using KGM medium, and then cultured at 37° C. in a 5% CO2 incubator up to about 80% confluency. Then, the cells were treated with PGG at concentrations of 0 ppm, 1 ppm, 2 ppm, and 4 ppm, cultured for 4 days, and then the viability of the cells was confirmed.

involucrin (IVL) = assay: Gene increase experiment for involucrin (IVL) (RNA isolation and RT-PCR); settings: keratinocytes, 4 days, corrected to RPLP0, FIG. 2
Protocol: (§1) Neonatal keratinocytes was dispensed into a 60 mm cell culture dish at a density of 1.25×10^6 cells/dish using KGM medium, and then cultured at 37° C. in a 5% CO2 incubator up to about 80% confluency. Then, the keratinocytes were treated with 0.2 ppm or 1 ppm of PGG, cultured for 4 days. After the culture, the medium was removed and 1 ml of Trizol (Invitrogen) was added thereto, and mRNA was isolated according to the RNA isolation method of Invitrogen. After quantifying mRNA at 260 nm using a CV detector (HEWLETT PACKARD), RT-PCR (Reverse transcription-polymerase chain reaction) was performed by using the primers of LOR and IVL (LOR-HS01894962_s1, IVL HS00846307_s1, respectively, both of which were obtained from Life Technologies). For genetic analysis of each sample, the correction was performed based on the complementary gene, RPLP0, and the results are shown in Table 2 below.

loricrin (LOR) = assay: Gene increase experiment for loricrin (LOR) (RNA isolation and RT-PCR); settings: keratinocytes, 4 days, corrected to RPLP0, FIG. 2
Protocol: as §1

SMILES	Increase in filaggrin expression(%) (filaggrin)	also measured
O=c1c(-c2ccc(O)cc2)coc2cc(O)c(O)cc12 [6,7,4′-trihydroxyisoflavone]	103%	
O=c1c(-c2ccc(O)c(O)c2)coc2cc(O)ccc12 [7,3′,4′-trihydroxyisoflavone]	110%	
Oc1cc(O)c2c(c1)O[C@H](c1ccc(O)c(O)c1)[C@H](O)C2 [(−)-Epicatechin(EC), (−)-Epicatechin]	108%	
C[C@]12C[C@@H](O)[C@@H]3C[C@@]1(O[C@@H]1O[C@H](CO)[C@@H](O)[C@H](O)[C@H]1O)[C@@]3(COC(=O)c1ccccc1)C(=O)O2 [Albiflorin]	107%	
O=c1c(O[C@@H]2O[C@H](CO)[C@@H](O)[C@H](O)[C@H]2O)c(-c2ccc(O)cc2)oc2cc(O)cc(O)c12 [Astragalin]	105%	
O=C(OC[C@H]1O[C@@H](OC(=O)c2cc(O)c(O)c(O)c2)[C@H](OC(=O)c2cc(O)c(O)c(O)c2)[C@@H](OC(=O)c2cc(O)c(O)c(O)c2)[C@@H]1OC(=O)c1cc(O)c(O)c(O)c1)c1cc(O)c(O)c(O)c1 [PGG, 1,2,3,4,6-penta-O-galloyl-β-D-glucose]	229%	cell viability (Neonatal keratinocytes): no significant difference in cell viability; rate of increase in the expression of filaggrin versus control group (filaggrin): more than 2 times; expression level of involucrin gene compared to control group (involucrin (IVL); 0.2 ppm): three-fold or more increase; increase of involucrin gene compared to control group (involucrin (IVL); 1 ppm): 5 times; expression level of loricrin gene compared to control group (loricrin (LOR); 0.2 ppm): almost no difference compared to the control group; increase of loricrin gene compared to control group (loricrin (LOR); 1 ppm): ≥ 2 times
C[C@@]12C[C@@]3(O)O[C@@H](O1)[C@]1(COC(=O)c4ccccc4)[C@H]3C[C@@]12O[C@@H]1O[C@H](CO)[C@@H](O)[C@H](O)[C@H]1O [Paeoniflorin]	116%	
COc1cc([C@H]2OC[C@H]3[C@@H]2CO[C@@H]3c2cc(OC)c(O)c(OC)c2)cc(OC)c1O [Syringaresinol]	103%	
